Reference: US20090209573A1, “COMPOUNDS AND COMPOSITIONS AS HEDGEHOG PATHWAY MODULATORS” (IRM LLC, priority 2004, published 2009)
pEC50: −log10 of the molar value.

How the values were obtained:
Type in all cases: cell-based
[1] = tested on: normal human dermal fibroblast cells; experiment: Cyto-toxicity Assay (Cell Titer-Glo cell viability), control cells; settings: 2 days, luminescent cell viability
Procedure: (§1) A cytotoxicity assay is performed to compare the effects of a compound of the invention on medulloblastoma cells (Daoy cells), basal cell carcinoma cells (TE354.T cells) and control cells (human normal fibroblast) according to the following procedure:
Normal human dermal fibroblast cells (Clonetics) are cultured in Fibroblast Growth Medium (Clonetics).
(§2) Each of the above cell lines are independently seeded into 96-well plates and cultured to a density of 5,000-10,000 cells/well. A compound of the invention, at different concentrations, is added into the cell cultures. After 2 days, the cell viability is evaluated with Cell Titer-Glo Luminescent Cell Viability Assay Kit (Promega) following the manufacturer's protocol. The cell viability is directly measured by luminescent signaling and EC50s are measured when the signal is inhibited 50%.

[2] = tested on: Daoy cells (medulloblastoma cell line); experiment: Cyto-toxicity Assay (Cell Titer-Glo cell viability), Daoy cells; settings: Homo sapiens, 48 h, 2 days, luminescent cell viability, read-out: EC50 against the proliferation of Daoy cells
Procedure: as §1
Daoy cells (medulloblastoma cell line) are purchased from ATCC, and cultured in Minimum essential medium (Eagle) with 2 mM L-glutamine and Earle's BSS adjusted to contain 1.5 g/L sodium bicarbonate, 0.1 mM non-essential amino acids, and 1.0 mM sodium pyruvate and 10% FBS at 37° C. with 5% CO2 in an air atmosphere.
as §2

[3] = tested on: Shh-mediated pathway activation (Gli-reporter in C3H10T1/2 cells); experiment: Gli-Luc Reporter Assay for Hh Pathway Inhibition; settings: C3H 10T1/2, recombinant mouse Shh protein 2 μg/mL, 48 hours, firefly luciferase normalized to Renilla, read-out: EC50 to block Shh-mediated pathway activation
Procedure: Gli-Luc Reporter Assay for Hh Pathway Inhibition
Mouse embryonic mesoderm fibroblasts C3H10T1/2 cells (obtained from American Type Culture Collection, ATCC, Manassas, Va.) are cultured in MEM-α medium (Gibco/Invitrogen, Carlsbad, Calif.) supplemented with 10% heat inactivated FBS (Gibco/Invitrogen, Carlsbad, Calif.), 50 unit/mL penicillin and 50 μg/mL of streptomycin (Gibco/Invitrogen, Carlsbad, Calif.) at 37° C. with 5% CO2 in air atmosphere. C3H10T1/2 cells in a 10 cm dish are co-transfected with 8 μg of Gli-reporter plasmid and 2 μg of Renilla luciferase control reporter (Promega, Madison, Wis.) with 30 μL of FuGENE6 (Roche Diagnostics, Indianapolis, Ind.) following the manufacturer's protocol. After 12 hours, cells are trypsinized and replated into a 96-well plate with MEM-α medium supplemented with 2% FBS, and treated with recombinant mouse Shh protein (expressed in E. coli, 2 μg/mL) and different concentrations of a compound of the invention. After 48 hours, the firefly luciferase and Renilla luciferase activities are assayed with the Dual-Glo™ Luciferase Assay System (Promega, Madison, Wis.). Firefly luciferase activity is normalized to Renilla luciferase activity. The EC50 is measured when the effect of the compound reduces the luminescence signal by 50%.

With `CCOc1ccc(Nc2nc(-c3c(C)nc4ccccn34)cs2)cc1` [Example 1, (4-Ethoxy-phenyl)-[4-(2-methyl-imidazo[1,2-a]pyridin-3-yl)-thiazol-2-yl]-amine] the “toxic effect on normal human dermal fibroblast cells (control)” value [1] was “no toxic effect”, the pEC50 [2] was 7.52 and the pEC50 [3] was 7.52.
